Entries after “also recorded” stand apart in the source; their conditions may differ. Read-outs that look alike come from different tables or passages of the source.
Legend:
GABAA (α1β2γ2) receptor = molecular target: T1, GABAA (α1β2γ2) receptor (Homo sapiens, UniProt P14867+P18507+P47870); assay: Application of NBT to other Cys-loop receptors; assay type: cell-based; conditions: listed as NBT
T1 construct: expressed in transfected cells
Text: (§1) To date the only known agonist and antagonist for ZACN are Zn^2+ (agonist) and d-tubocurarine (antagonist).

GABAA (α6β2δ) receptor = molecular target: T2, GABAA (α6β2δ) receptor (Homo sapiens, UniProt O14764+P47870+Q16445); assay: Application of NBT to other Cys-loop receptors; assay type: cell-based; conditions: listed as NBT
T2 construct: expressed in transfected cells
T2 sequence (Q16445 20-453): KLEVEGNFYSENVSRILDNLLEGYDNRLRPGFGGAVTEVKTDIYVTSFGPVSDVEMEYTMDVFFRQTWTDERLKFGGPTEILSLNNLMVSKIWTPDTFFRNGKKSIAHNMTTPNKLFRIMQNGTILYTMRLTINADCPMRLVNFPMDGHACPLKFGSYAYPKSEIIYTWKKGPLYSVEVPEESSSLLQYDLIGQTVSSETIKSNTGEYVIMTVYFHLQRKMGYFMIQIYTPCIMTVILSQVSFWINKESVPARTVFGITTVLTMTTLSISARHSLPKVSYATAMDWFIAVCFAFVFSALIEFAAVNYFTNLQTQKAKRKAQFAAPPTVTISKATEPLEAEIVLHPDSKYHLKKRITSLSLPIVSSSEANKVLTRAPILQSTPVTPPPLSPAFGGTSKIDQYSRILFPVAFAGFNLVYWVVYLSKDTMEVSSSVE
T2 sequence (P47870 25-512 limits assumed): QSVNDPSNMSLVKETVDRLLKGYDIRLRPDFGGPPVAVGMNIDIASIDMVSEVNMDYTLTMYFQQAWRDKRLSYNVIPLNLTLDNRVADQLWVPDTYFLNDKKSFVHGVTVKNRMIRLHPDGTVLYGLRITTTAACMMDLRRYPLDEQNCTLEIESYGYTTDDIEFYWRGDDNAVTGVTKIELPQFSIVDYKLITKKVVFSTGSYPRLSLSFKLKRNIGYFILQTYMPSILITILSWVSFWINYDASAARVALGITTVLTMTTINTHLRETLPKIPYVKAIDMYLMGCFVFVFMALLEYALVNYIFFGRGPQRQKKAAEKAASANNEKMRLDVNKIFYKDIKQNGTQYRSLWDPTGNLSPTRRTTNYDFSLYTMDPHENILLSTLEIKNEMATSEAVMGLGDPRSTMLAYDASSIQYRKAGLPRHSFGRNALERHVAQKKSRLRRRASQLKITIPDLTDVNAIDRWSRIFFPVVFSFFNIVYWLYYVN
T2 sequence (O14764 17-452 limits assumed): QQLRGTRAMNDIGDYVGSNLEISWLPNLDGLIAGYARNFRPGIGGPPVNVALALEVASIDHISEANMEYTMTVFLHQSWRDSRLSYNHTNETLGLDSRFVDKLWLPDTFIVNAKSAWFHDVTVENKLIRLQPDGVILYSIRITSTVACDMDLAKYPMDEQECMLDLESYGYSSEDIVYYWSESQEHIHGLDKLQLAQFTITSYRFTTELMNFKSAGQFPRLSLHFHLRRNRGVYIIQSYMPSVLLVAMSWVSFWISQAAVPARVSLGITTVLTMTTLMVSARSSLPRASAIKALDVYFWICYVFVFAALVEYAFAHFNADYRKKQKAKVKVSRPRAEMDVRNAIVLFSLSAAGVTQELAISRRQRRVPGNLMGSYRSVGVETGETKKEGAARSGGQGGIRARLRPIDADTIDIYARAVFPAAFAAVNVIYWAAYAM
Text: as §1

GABAC (ρ1) receptor = molecular target: T3, GABAC (ρ1) receptor (Homo sapiens, UniProt P24046); assay: Application of NBT to other Cys-loop receptors; assay type: cell-based; conditions: listed as NBT
T3 construct: expressed in transfected cells
T3 sequence (P24046 22-479): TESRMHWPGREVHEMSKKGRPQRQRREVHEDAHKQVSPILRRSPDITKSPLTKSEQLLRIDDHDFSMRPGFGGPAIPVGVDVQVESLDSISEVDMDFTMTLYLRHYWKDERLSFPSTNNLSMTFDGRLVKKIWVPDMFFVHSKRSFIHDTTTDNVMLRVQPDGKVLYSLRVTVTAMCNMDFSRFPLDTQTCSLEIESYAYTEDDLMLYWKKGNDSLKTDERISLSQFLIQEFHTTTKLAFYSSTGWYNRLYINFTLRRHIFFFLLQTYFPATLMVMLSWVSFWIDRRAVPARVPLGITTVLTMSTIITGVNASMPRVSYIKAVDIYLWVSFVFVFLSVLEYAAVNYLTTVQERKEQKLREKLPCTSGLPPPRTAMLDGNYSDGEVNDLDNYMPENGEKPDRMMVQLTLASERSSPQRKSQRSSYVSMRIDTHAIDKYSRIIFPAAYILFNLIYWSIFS
Text: as §1

glycine (α1) receptor = molecular target: T4, glycine (α1) receptor (Homo sapiens, UniProt P23415); assay: Application of NBT to other Cys-loop receptors; assay type: cell-based; conditions: listed as NBT
T4 construct: expressed in transfected cells
T4 sequence (P23415 29-457): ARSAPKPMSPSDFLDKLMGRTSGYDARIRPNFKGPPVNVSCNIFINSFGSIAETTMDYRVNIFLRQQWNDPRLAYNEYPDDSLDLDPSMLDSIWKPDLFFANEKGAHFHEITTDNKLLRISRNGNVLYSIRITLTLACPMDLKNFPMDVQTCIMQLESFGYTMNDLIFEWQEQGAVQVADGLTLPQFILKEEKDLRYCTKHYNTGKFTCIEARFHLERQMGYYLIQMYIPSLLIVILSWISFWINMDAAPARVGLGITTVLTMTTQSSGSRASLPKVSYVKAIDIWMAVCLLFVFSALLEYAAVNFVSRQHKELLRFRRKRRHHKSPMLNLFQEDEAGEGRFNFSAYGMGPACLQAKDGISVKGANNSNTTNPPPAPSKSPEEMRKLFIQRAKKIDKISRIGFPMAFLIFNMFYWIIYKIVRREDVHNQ
Text: as §1

nACh (α4β2) receptor = molecular target: T5, nACh (α4β2) receptor (Homo sapiens, UniProt P17787+P43681); assay: Application of NBT to other Cys-loop receptors; assay type: cell-based; conditions: listed as NBT
T5 construct: expressed in transfected cells
T5 sequence (P43681 29-627): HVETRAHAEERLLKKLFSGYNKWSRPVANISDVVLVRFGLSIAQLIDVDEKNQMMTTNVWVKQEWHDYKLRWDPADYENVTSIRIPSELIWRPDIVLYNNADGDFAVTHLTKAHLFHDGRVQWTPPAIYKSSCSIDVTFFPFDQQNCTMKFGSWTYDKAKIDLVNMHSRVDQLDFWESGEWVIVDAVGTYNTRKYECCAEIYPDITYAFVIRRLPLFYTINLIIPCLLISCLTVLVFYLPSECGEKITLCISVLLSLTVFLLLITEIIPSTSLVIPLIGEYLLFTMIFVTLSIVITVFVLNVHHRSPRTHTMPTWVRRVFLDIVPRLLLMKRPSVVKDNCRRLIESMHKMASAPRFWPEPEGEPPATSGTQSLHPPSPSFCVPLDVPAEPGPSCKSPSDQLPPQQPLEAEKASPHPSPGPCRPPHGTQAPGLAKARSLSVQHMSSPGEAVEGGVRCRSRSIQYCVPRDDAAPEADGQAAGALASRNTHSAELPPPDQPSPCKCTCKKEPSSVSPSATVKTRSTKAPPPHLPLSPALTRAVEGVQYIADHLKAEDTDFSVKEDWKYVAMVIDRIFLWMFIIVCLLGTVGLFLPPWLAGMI
T5 sequence (P17787 26-502): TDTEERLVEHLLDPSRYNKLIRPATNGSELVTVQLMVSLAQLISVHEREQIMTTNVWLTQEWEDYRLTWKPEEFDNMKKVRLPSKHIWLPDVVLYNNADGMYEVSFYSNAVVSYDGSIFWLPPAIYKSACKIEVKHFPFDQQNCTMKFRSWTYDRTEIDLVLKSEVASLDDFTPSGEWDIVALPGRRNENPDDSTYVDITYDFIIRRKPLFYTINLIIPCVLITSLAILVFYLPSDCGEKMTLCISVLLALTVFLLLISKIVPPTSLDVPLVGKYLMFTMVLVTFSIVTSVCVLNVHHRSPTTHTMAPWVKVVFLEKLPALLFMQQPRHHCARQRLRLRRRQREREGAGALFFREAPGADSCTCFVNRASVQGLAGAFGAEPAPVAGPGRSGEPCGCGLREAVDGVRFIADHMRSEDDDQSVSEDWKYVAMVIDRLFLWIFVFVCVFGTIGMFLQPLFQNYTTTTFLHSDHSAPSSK
Text: as §1

nACh (α7) receptor = molecular target: T6, nACh (α7) receptor (Homo sapiens, UniProt P36544); assay: Application of NBT to other Cys-loop receptors; assay type: cell-based; conditions: listed as NBT
T6 construct: expressed in transfected cells
T6 sequence (P36544 23-502): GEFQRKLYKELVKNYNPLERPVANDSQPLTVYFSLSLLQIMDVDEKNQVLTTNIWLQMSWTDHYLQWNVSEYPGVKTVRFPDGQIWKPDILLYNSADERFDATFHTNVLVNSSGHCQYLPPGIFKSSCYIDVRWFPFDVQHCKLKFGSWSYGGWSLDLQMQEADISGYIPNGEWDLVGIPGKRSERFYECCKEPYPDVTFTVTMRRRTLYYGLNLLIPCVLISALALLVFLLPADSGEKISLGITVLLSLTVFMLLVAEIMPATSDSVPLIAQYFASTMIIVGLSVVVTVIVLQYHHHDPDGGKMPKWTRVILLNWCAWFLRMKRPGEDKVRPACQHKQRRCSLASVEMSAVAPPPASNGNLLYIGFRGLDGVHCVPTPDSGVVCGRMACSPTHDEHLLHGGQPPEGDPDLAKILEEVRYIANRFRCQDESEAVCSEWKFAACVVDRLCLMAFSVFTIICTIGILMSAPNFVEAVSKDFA
Text: as §1

[1] = molecular target: T7, serotonin (5HT3A) receptor (Homo sapiens, UniProt P46098); assay: Application of NBT to other Cys-loop receptors; assay type: cell-based; conditions: listed as NBT
T7 construct: expressed in transfected cells
T7 sequence (P46098 24-478): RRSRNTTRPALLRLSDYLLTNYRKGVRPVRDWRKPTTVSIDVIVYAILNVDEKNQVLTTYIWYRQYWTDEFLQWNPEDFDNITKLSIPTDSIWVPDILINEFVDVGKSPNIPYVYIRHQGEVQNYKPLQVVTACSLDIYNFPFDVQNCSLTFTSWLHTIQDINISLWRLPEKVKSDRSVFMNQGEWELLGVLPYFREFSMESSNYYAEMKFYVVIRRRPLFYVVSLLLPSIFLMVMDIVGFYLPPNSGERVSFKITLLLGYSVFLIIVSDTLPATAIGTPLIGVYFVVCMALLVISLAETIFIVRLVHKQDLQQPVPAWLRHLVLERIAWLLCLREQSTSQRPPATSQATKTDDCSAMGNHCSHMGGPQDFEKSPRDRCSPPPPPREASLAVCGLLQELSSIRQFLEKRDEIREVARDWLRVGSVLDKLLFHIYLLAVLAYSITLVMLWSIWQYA
Text: as §1

ZACN [2] = molecular target: T8, ZACN (Homo sapiens, UniProt Q401N2); assay: Two-electrode voltage-clamp, ZACN expressed in Xenopus laevis oocytes: agonist-induced current; assay type: cell-based; parameters: host or cells: Xenopus laevis oocytes injected with cRNA (pGEMHE vector, T7 transcript)
T8 sequence (Q401N2 26-412): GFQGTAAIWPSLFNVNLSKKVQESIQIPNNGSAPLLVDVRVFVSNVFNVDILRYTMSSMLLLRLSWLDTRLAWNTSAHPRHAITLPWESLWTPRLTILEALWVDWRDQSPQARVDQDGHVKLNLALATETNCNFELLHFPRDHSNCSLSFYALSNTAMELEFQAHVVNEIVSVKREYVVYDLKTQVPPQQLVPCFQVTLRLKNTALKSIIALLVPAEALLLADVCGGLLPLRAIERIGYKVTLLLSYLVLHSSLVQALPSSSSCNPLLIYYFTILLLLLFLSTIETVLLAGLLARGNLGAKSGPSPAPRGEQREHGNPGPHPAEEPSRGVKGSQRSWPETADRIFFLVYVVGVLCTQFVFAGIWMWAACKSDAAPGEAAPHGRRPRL
Text: The cDNA encoding wild type, human ZACN was purchased from OpenBiosystems, and cloned into the pGEMHE vector in the T7 orientation. For cRNA synthesis, cDNA templates were PCR amplified using primers that cover the M13 forward and reverse regions and high fidelity Phusion DNA polymerase (New England Biolab, Ipswich, Mass., USA). PCR products were then purified and served as templates for cRNA synthesis. cRNAs were transcribed by T7 RNA polymerase (Promega, Madison, Wis., USA) using standard in vitro transcription protocols. After digestion of the DNA template by RNase-free DNase I, cRNAs were purified and resuspended in diethyl pyrocarbonate (DEPC)-treated water. cRNA integrity was examined on a 1% agarose gel, and cRNA concentration was determined by optical density measurements at 260 nm using an Eppendorf Biophotometer.
Oocytes were harvested from female Xenopus laevis (Xenopus I, Ann Arbor, Mich., USA), using the protocol “Xenopus Care and Use” approved by the Institutional Animal Care and Use Committee of the St. Joseph's Hospital and Medical Center. Stage VI oocytes were selected and incubated at 16° C. before injection. Micropipettes for injection were pulled from borosilicate glass (Drummond Scientific, Broomall, Pa., USA) on a Sutter P87 horizontal puller, and the tips were cut with forceps to ≈40 μm in diameter. cRNAs encoding ZACN was drawn up into the micropipette and injected into oocytes with a Nanoject micro-injection system (Drummond Scientific) in a total volume of ˜60 nl and total cRNA of ˜20 ng for each oocyte.
Two to 5 days after injection, oocytes expressing ZACN were placed in a home-made, small volume chamber and a 16-channel manifold, continuously perfused with oocyte Ringer's solution (OR2), which consisted of (in mM) 92.5 NaCl, 2.5 KCl, 1 CaCl2, 1 MgCl2 and 5 HEPES, pH 7.5. ValveLink 16 computer-controlled perfusion system was used to switch solutions between the OR2 and a test solution. The perfusion chamber was grounded through an agar salt bridge to avoid alterations in junction potential between the Ag/AgCl grounding electrode and solution when solution/drug changes occurred. Oocytes were voltage-clamped at −70 mV to measure agonist-induced currents using an AxoClamp 900A amplifier (Axon Instruments, Foster City, Calif., USA). The current signal was low-pass filtered at 20 Hz with the built-in 4-pole low-pass Bessel filter and digitized at 100 Hz with a Digidata1440a and pClamp 10 software (Molecular Devices).
For each oocyte, concentration-inhibition curves for drug-induced inhibition of zinc-activated current responses or concentration response curves for agonist-induced current of the ZACN were fit to the Hill equation using least squares methods (Prism 6.0, GraphPad Software, Inc., San Diego, Calif., USA) to derive IC50 or EC50 values (the concentration required for inducing a half maximal current), Hill coefficients (the slope factor), and maximum current levels in absolute terms. Current levels in each oocyte were normalized to the maximum current in the absence of the inhibitor, allowing normalized data to be averaged across multiple oocytes and to be fit again to the Hill equation. All data are presented as mean±SEM (standard error).

[3] = system: iTreg-induced immunosuppression of T cell division; assay type: cell-based, human
Procedure: Live Treg cells (CD4+CD25^high) and conventional T cells (Tconv cells) (CD4+CD25−) are obtained by immunomagnetic cell isolation kit from human iTreg. Tconv cells are labeled with CFSE (10 uM for 10 min). After washing, the labeled cells are distributed into multiple wells (1×10^5/well) in a round bottom 96-well plate with various numbers (2-fold serial dilutions from 1×10^5/well) of Treg cells in each well. The mixed cells (Treg and Tconv with different ratios) are co-cultured for 72 h in the presence of anti-CD3/CD28-coated sulfate latex beads. The intensity of CFSE fluorescence that declines upon division of the labeled cells is measured by flow cytometry.
As disclosed throughout the disclosure, and specifically in FIG. 7, Zinc and/or d-tubocurarine has an influence on iTreg suppression function. CFSE Immunosuppression Assay uses a cell permeable reactive fluorescent dye, CFSE. After entering cells, CFSE interacts with intracellular proteins, and permanently stain the cell. The fluorescence intensity will decrease along with the T cell division.

ZACN [4] = molecular target: T8, ZACN; parameters: host or cells: HEK cells (exogenous expression); conditions: cited from earlier work
iTreg cells = assay: Calcium influx assay in Treg cells; assay type: cell-based, human
Procedure: Treg cells were loaded with calcium sensitive fluorescent dye X-Rhod-1 AM (cell permeant) (2 μM) for 60 min at room temperature. After wash, the cells were placed onto a glass-bottom petri dish with coated glass surface to allow cells attached to the glass surface. The fluorescence was detected using a microscope-based detection system with a different filter set (excitation filter ET560/40x, T585LPxr dichroic mirror, and ET630/75m emission filter). The fluorescence signal, first in the absence and then in the presence of a ZACN agonist, was low-pass filtered with a signal filter at 1 Hz and digitized with a Digidata1440 digitizer at 10 Hz.

T1 sequence (P47870 25-512): as the sequence (P47870 25-512 limits assumed) above
T1 sequence (P18507 40-475): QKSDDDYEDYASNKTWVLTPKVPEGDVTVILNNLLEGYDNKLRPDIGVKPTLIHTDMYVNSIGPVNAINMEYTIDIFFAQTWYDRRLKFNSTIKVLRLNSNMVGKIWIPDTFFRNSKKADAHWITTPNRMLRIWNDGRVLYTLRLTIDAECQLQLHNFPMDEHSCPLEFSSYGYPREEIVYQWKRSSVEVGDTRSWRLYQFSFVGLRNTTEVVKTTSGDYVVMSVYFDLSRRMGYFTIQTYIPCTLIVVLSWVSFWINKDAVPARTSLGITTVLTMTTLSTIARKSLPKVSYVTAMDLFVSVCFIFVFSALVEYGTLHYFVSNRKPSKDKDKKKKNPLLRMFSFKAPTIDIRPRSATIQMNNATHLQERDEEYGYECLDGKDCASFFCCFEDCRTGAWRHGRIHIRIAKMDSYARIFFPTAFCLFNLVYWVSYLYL
T1 sequence (P14867 28-456): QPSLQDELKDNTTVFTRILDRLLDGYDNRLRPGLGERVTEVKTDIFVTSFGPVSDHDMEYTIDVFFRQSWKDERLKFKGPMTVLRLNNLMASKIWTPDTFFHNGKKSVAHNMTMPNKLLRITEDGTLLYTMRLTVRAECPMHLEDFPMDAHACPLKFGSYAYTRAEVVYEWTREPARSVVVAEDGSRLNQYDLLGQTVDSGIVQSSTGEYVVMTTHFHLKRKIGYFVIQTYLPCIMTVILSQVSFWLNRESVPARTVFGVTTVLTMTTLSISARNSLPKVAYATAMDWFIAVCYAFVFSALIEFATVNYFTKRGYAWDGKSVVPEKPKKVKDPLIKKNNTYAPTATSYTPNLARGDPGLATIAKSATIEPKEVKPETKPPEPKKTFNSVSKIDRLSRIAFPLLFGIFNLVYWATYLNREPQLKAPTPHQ

Which “response to NBT application” value (GABAA (α1β2γ2) receptor) does the source give for COc1cc(-c2ccc(-n3nc(-c4ccccc4)n[n+]3-c3ccc([N+](=O)[O-])cc3)c(OC)c2)ccc1-n1nc(-c2ccccc2)n[n+]1-c1ccc([N+](=O)[O-])cc1 [Nitro Blue Tetrazolium] here?
Its value is “elicited no response; also recorded: no agonist or antagonist effect”.

And the “response to NBT application” value (GABAA (α6β2δ) receptor)?
Its value is “elicited no response; also recorded: no agonist or antagonist effect”.

And the “response to NBT application” value (GABAC (ρ1) receptor)?
Its value is “elicited no response; also recorded: no agonist or antagonist effect”.

What about the “response to NBT application” value (glycine (α1) receptor) of the same molecule?
Its value is “elicited no response; also recorded: no agonist or antagonist effect”.

What about the “response to NBT application” value (nACh (α4β2) receptor) of the same molecule?
The value was “elicited no response; also recorded: no agonist or antagonist effect”.

What about the “response to NBT application” value (nACh (α7) receptor) of the same molecule?
Its value is “elicited no response; also recorded: no agonist or antagonist effect”.

What about the “response to NBT application” value [1] of the same molecule?
The value was “elicited no response; also recorded: no agonist or antagonist effect”.

What about the “ZACN recovery from activation, compared with ZnCl2” value (ZACN [2]) of the same molecule?
Its value is “much slower”.

And the “agonist activity on human ZACN (words)” value (ZACN [2])?
Its value is “selective agonist”.

Which results are given for COc1cc2c3cc1Oc1cc(ccc1O)C[C@@H]1c4c(cc(OC)c(O)c4Oc4ccc(cc4)C[C@@H]3N(C)CC2)CC[N+]1(C)C [d-tubocurarine]?
influence on iTreg suppression function [3]: inhibited the iTreg-induced immunosuppression of T cell division; effect on spontaneous activity of ZACN in HEK cells (ZACN [4]): blocked

For [Cl-].[Cl-].[Zn+2] [ZnCl2, Zinc chloride], which “effect on T cell viability” value ([3]; high concentration, 1 mM) is on record?
Its value is “killed T cells”.

What about the “intracellular calcium in iTreg cells” value (iTreg cells) of the same molecule?
Its value is “intracellular calcium increase”.

What about the EC50 (ZACN [4]; HEK cells, read-out: ZnCl2 EC50 for ZACN expressed in HEK cells) of the same molecule?
The EC50 was 540 µM.

What about the “activation of ZACN in HEK cells” value (ZACN [4]) of the same molecule?
The value was “activated this receptor dose-dependently”.

What about the “ZnCl2 EC50 in Xenopus oocytes relative to HEK cells (fold greater)” value (ZACN [2]) of the same molecule?
Its value is “approximately 3 fold”.

What about the “approximate EC80 Zn2+ concentration for this receptor” value (ZACN [2]) of the same molecule?
Its value is about 2000 µM.

And the EC50 (ZACN [2]; ZACN expressed in X. laevis oocytes, read-out: EC50 in activating ZACN)?
The EC50 was 1640 ± 56 µM.

And the EC50 (ZACN [2]; ZACN expressed in X. laevis oocytes, read-out: EC50 on ZACN)?
The EC50 was 1660 µM.

And the EC50 (ZACN [2]; read-out: approximate EC50 Zn2+ concentration for this receptor)?
The EC50 was about 500 µM.

Reference: patent US11191743B2, “Modulators of zinc activated cation channel” (Dignity Health, priority 2016, dated 2021)
